According to paper PMC11995724, “Antibiotic target discovery by integrated phenotypic and activity-based profiling of electrophilic fragments” (Cell chemical biology, 2025):

Assay: in vitro
Details: human, hek293t cells

Row | Structure (SMILES) | viability at 48 h, 25 µM [%]
1 | CC(Cl)C(=O)NCc1cnc(N2CCOCC2)s1 (stereo not shown) [6-P05, 2-chloro-N-{[2-(morpholin-4-yl)-1,3-thiazol-5-yl]methyl}propanamide] | 116
2 | CC(Cl)C(=O)NC(=O)NCc1ccccc1 (stereo not shown) [6-P06, 1-benzyl-3-(2-chloropropanoyl)urea] | 123
3 | CC(Cl)C(=O)NC(C)c1nc(-c2cccnc2)cs1 (stereo not shown) [6-P07, 2-chloro-N-{1-[4-(pyridin-3-yl)-1,3-thiazol-2-yl]ethyl}propanamide] | 115
4 | CC(Cl)C(=O)Nc1ccc(F)c(F)c1 (stereo not shown) [6-P08, 2-chloro-N-(3,4-difluorophenyl)propanamide] | 101
5 | CC(Cl)C(=O)NC(C)C(c1ccccc1Cl)n1cccn1 (stereo not shown) [6-P09, 2-chloro-N-[1-(2-chlorophenyl)-1-(1H-pyrazol-1-yl)propan-2-yl]propanamide] | 119
6 | COc1ccc(CNC(=O)C(C)Cl)cc1OC (stereo not shown) [6-P10, 2-chloro-N-[(3,4-dimethoxyphenyl)methyl]propanamide] | 113
7 | CC(Cl)C(=O)N(Cc1cnn(C)c1)c1ccc(F)cc1 (stereo not shown) [6-P11, 2-chloro-N-(4-fluorophenyl)-N-[(1-methyl-1H-pyrazol-4-yl)methyl]propanamide] | 114
8 | CC(Cl)C(=O)NC(C)c1ccns1 (stereo not shown) [6-P12, 2-chloro-N-[1-(1,2-thiazol-5-yl)ethyl]propanamide] | 115
9 | CC(Cl)C(=O)NC(C)c1ncn(C)n1 (stereo not shown) [6-P13, 2-chloro-N-[1-(1-methyl-1H-1,2,4-triazol-3-yl)ethyl]propanamide] | 112
10 | CC(Cl)C(=O)N[C@@H]1CCc2c(C#N)cccc21 (stereo partly drawn) [6-P14, 2-chloro-N-[(1R)-4-cyano-2,3-dihydro-1H-inden-1-yl]propanamide] | 114
11 | CC(Cl)C(=O)Nc1ccc2c(c1)ncn2CCN(C)C (stereo not shown) [6-P15, 2-chloro-N-{1-[2-(dimethylamino)ethyl]-1H-1,3-benzodiazol-5-yl}propanamide] | 113
12 | CC(Cl)C(=O)N1CCN(C(c2ccccc2)C(F)(F)F)CC1 (stereo not shown) [6-P16, 2-chloro-1-[4-(2,2,2-trifluoro-1-phenylethyl)piperazin-1-yl]propan-1-one] | 114
13 | CC(Cl)C(=O)N1CCN(Cc2cc(=O)n3ccsc3n2)CC1 (stereo not shown) [6-P17, 7-{[4-(2-chloropropanoyl)piperazin-1-yl]methyl}-5H-[1,3]thiazolo[3,2-a]pyrimidin-5-one] | 113
14 | CC(Cl)C(=O)N1CCCC(CC(=O)OC(C)(C)C)CC1 (stereo not shown) [6-P18, tert-butyl 2-[1-(2-chloropropanoyl)azepan-4-yl]acetate] | 93.9
15 | Cc1noc(C)c1C(C)CNC(=O)C(C)Cl (stereo not shown) [6-P19, 2-chloro-N-[2-(3,5-dimethyl-1,2-oxazol-4-yl)propyl]propanamide] | 115
16 | CC(Cl)C(=O)N(C)Cc1cc(Cl)cn1C (stereo not shown) [6-P21, 2-chloro-N-[(4-chloro-1-methyl-1H-pyrrol-2-yl)methyl]-N-methylpropanamide] | 103
17 | O=C(CCl)NC1CN(C(=O)C2CC2)C1 [6-P22, 2-chloro-N-(1-cyclopropanecarbonylazetidin-3-yl)acetamide] | 112
18 | CC(Cl)C(=O)N1CCCCC1c1cnn(C)c1 (stereo not shown) [7-A03, 2-chloro-1-[2-(1-methyl-1H-pyrazol-4-yl)piperidin-1-yl]propan-1-one] | 98.8
19 | CC(Cl)C(=O)NCc1nc(N(C)C)no1 (stereo not shown) [7-A04, 2-chloro-N-{[3-(dimethylamino)-1,2,4-oxadiazol-5-yl]methyl}propanamide] | 92.2
20 | CC(Cl)C(=O)NCc1nc2c(s1)CC(c1ccccc1)CC2 (stereo not shown) [7-A05, 2-chloro-N-[(6-phenyl-4,5,6,7-tetrahydro-1,3-benzothiazol-2-yl)methyl]propanamide] | 57.5
21 | CC(Cl)C(=O)NCC1(C2CC2)CCC1 (stereo not shown) [7-A06, 2-chloro-N-[(1-cyclopropylcyclobutyl)methyl]propanamide] | 81.1
22 | CC(Cl)C(=O)NCC(C)c1nncn1C (stereo not shown) [7-A07, 2-chloro-N-[2-(4-methyl-4H-1,2,4-triazol-3-yl)propyl]propanamide] | 84.8
23 | CC(Cl)C(=O)N1CCCC(n2ccc(C(F)(F)F)n2)C1 (stereo not shown) [7-A08, 2-chloro-1-{3-[3-(trifluoromethyl)-1H-pyrazol-1-yl]piperidin-1-yl}propan-1-one] | 80.7
24 | CC(Cl)C(=O)N1CCOCC1c1cccn1C (stereo not shown) [7-A09, 2-chloro-1-[3-(1-methyl-1H-pyrrol-2-yl)morpholin-4-yl]propan-1-one] | 82
25 | CC(Cl)C(=O)NCc1nnc(C2CCC2)n1C (stereo not shown) [7-A10, 2-chloro-N-[(5-cyclobutyl-4-methyl-4H-1,2,4-triazol-3-yl)methyl]propanamide] | 87.1
26 | CC(Cl)C(=O)NC1(c2ccccc2)CCOCC1 (stereo not shown) [7-A11, 2-chloro-N-(4-phenyloxan-4-yl)propanamide] | 108

Row | Structure (SMILES) | viability at 48 h, 25 µM [%]
27 | CC(Cl)C(=O)NCc1cc(-c2ccccc2)on1 (stereo not shown) [7-A13, 2-chloro-N-[(5-phenyl-1,2-oxazol-3-yl)methyl]propanamide] | 74.7
28 | CC(Cl)C(=O)NCCc1cn(C)nn1 (stereo not shown) [7-A14, 2-chloro-N-[2-(1-methyl-1H-1,2,3-triazol-4-yl)ethyl]propanamide] | 82.7
29 | CC(Cl)C(=O)N1CCN(Cc2ccc3ccccc3n2)CC1 (stereo not shown) [7-A15, 2-chloro-1-{4-[(quinolin-2-yl)methyl]piperazin-1-yl}propan-1-one] | 83.2
30 | Cc1ccc(N2CCN(C(=O)C(C)Cl)CC2=O)o1 (stereo not shown) [7-A16, 4-(2-chloropropanoyl)-1-(5-methylfuran-2-yl)piperazin-2-one] | 74.7
31 | CC(Cl)C(=O)NC1COc2ccc(F)cc21 (stereo not shown) [7-A17, 2-chloro-N-(5-fluoro-2,3-dihydro-1-benzofuran-3-yl)propanamide] | 74
32 | CC(Cl)C(=O)N1CCC(Oc2ccc(C3CC3)cn2)C1 (stereo not shown) [7-A18, 2-chloro-1-{3-[(5-cyclopropylpyridin-2-yl)oxy]pyrrolidin-1-yl}propan-1-one] | 60.4
33 | Cc1nnnn1CCNC(=O)C(C)Cl (stereo not shown) [7-A19, 2-chloro-N-[2-(5-methyl-1H-1,2,3,4-tetrazol-1-yl)ethyl]propanamide] | 79
34 | CC(Cl)C(=O)N1CC(C(=O)N2CCN(C)CC2)Oc2ccccc21 (stereo not shown) [7-A20, 2-chloro-1-[2-(4-methylpiperazine-1-carbonyl)-3,4-dihydro-2H-1,4-benzoxazin-4-yl]propan-1-one] | 77.1
35 | Cc1ccc(NC(=O)N2CCN(C(=O)C(C)Cl)CC2)cc1Cl (stereo not shown) [7-A21, N-(3-chloro-4-methylphenyl)-4-(2-chloropropanoyl)piperazine-1-carboxamide] | 70.8
36 | CC(Cl)C(=O)N1CCCC1c1cccc(N(C)C)c1 (stereo not shown) [7-A22, 2-chloro-1-{2-[3-(dimethylamino)phenyl]pyrrolidin-1-yl}propan-1-one] | 68.7
37 | Cc1nn(-c2ccccc2)c(C)c1CN(C)C(=O)CCl [7-B03, 2-chloro-N-[(3,5-dimethyl-1-phenyl-1H-pyrazol-4-yl)methyl]-N-methylacetamide] | 0.804
38 | O=C(CCl)NC1CCCc2nc(-c3ccccc3)sc21 (stereo not shown) [7-B04, 2-chloro-N-(2-phenyl-4,5,6,7-tetrahydro-1,3-benzothiazol-7-yl)acetamide] | 0.382
39 | Cc1noc(C)c1CN(C(=O)CCl)C1CC1 [7-B05, 2-chloro-N-cyclopropyl-N-[(3,5-dimethyl-1,2-oxazol-4-yl)methyl]acetamide] | 0.0855
40 | O=C(CCl)NCc1nn(-c2ccccc2)c2c1CCC2 [7-B06, 2-chloro-N-({1-phenyl-1H,4H,5H,6H-cyclopenta[c]pyrazol-3-yl}methyl)acetamide] | 0.565
41 | Cc1nc2cc(=O)[nH]n2c(C)c1CNC(=O)C(C)Cl (stereo not shown) [7-B07, 2-chloro-N-({5,7-dimethyl-2-oxo-1H,2H-pyrazolo[1,5-a]pyrimidin-6-yl}methyl)propanamide] | 96.1
42 | O=C(CCl)NCC1CCN(C(=O)Cc2ccccc2)C1 (stereo not shown) [7-B08, 2-chloro-N-{[1-(2-phenylacetyl)pyrrolidin-3-yl]methyl}acetamide] | 0.975
43 | Cc1ccc(C2OCCCC2CNC(=O)C(C)Cl)cc1 (stereo not shown) [7-B09, 2-chloro-N-{[2-(4-methylphenyl)oxan-3-yl]methyl}propanamide] | 91.9
44 | CN1C(=O)c2ccccc2C1CNC(=O)CCl (stereo not shown) [7-B10, 2-chloro-N-[(2-methyl-3-oxo-2,3-dihydro-1H-isoindol-1-yl)methyl]acetamide] | 4.11
45 | CC(Cl)C(=O)N1CCCC1c1nccc(C(F)(F)F)n1 (stereo not shown) [7-B11, 2-chloro-1-{2-[4-(trifluoromethyl)pyrimidin-2-yl]pyrrolidin-1-yl}propan-1-one] | 106
46 | O=C(CCl)NCC(=O)N(c1ccccc1)c1ccccc1 [7-B12, 2-chloro-N-[(diphenylcarbamoyl)methyl]acetamide] | 1.21
47 | Cc1cc(N2CCCC(NC(=O)C(C)Cl)C2=O)n(C)n1 (stereo not shown) [7-B13, 2-chloro-N-[1-(1,3-dimethyl-1H-pyrazol-5-yl)-2-oxopiperidin-3-yl]propanamide] | 95.8
48 | O=C(CCl)NC1CCCOc2c(F)cccc21 (stereo not shown) [7-B14, 2-chloro-N-(9-fluoro-2,3,4,5-tetrahydro-1-benzoxepin-5-yl)acetamide] | 0.886
49 | CCc1nsc(N2CCCN(C(=O)C(C)Cl)CC2)n1 (stereo not shown) [7-B15, 2-chloro-1-[4-(3-ethyl-1,2,4-thiadiazol-5-yl)-1,4-diazepan-1-yl]propan-1-one] | 84.3
50 | O=C(CCl)N(Cc1nc(C2CCCCCC2)no1)C1CC1 [7-B16, 2-chloro-N-[(3-cycloheptyl-1,2,4-oxadiazol-5-yl)methyl]-N-cyclopropylacetamide] | 0.667
51 | CC(Cl)C(=O)N1CCOCC1c1nc(-c2cccs2)no1 (stereo not shown) [7-B17, 2-chloro-1-{3-[3-(thiophen-2-yl)-1,2,4-oxadiazol-5-yl]morpholin-4-yl}propan-1-one] | 75.7
52 | C=C(Cl)CN(C(=O)CCl)C1CCc2ccccc21 (stereo not shown) [7-B18, 2-chloro-N-(2-chloroprop-2-en-1-yl)-N-(2,3-dihydro-1H-inden-1-yl)acetamide] | 0.322
